Laboratory results: publication PMC11478334, “Quaternized Curcumin Derivative—Synthesis, Physicochemical Characteristics, and Photocytotoxicity, Including Antibacterial Activity after Irradiation with Blue Light” (Molecules, 2024)
Like-named read-outs stand apart in the source and are kept apart here.

Experiments:
C. albicans = test system: C. albicans; design: method as in PMID 22934533; settings: 80 µM curcumin, 37.5 J/cm^2; mouse model of oral candidiasis; cited from earlier work
[1] = test system: WM266-4 melanoma cell line; design: method as in Siwak et al. 49; settings: after 96 h of incubation; ref Siwak et al. 49; cited from earlier work
MRC-5 fibroblasts = test system: MRC-5 fibroblasts; design: method as in Lazewski et al. 32; settings: ref Lazewski et al. 32, cited from earlier work

Row | Compound | reduction in the survival of C. albicans (C. albicans) | IC50 [1] | IC50 (MRC-5 fibroblasts; after 24 h) | IC50 (MRC-5 fibroblasts; after 48 h) | melting point
1 | Curcumin [reference compound] | 4 log | ~7 µM | 70.4 ± 12.5 µM | 45.3 ± 3.18 µM | –
2 | F[B-]1(F)OC(/C=C/c2ccc(OCCN3CCOCC3)cc2)=CC(/C=C/c2ccc(OCCN3CCOCC3)cc2)=[O+]1 [Compound 2] | – | – | – | – | 170 to 173 °C
